Data as given in PubChem BioAssay AID248 (DTP/NCI, 2004).
Values joined by “and” are separate entries in the source; they are usually repeats but may differ in a detail not shown here. Identical values can stand only once. Toxic doses and inconclusive results are not listed. Cut-off read from the data, not from the text of the source: active = T/C of 150% or more; inactive = T/C below 125%.

System: L1210 leukemia ip in BDF1 mice, survival T/C
Assay: NCI In Vivo Anticancer Drug Screen. Data for tumor model L1210 Leukemia (intraperitoneal) in B6D2F1 (BDF1) mice
Settings: endpoint: mean survival time, higher = longer survival
How it was run: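 Read-out is survival time, reported as the treated-group measurement over the vehicle-control measurement.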

[1] = dose: 100.0 mg/kg/injection, schedule: Q01DX001 (ip), vehicle: saline with Tween-80
[2] = dose: 200.0 mg/kg/injection, schedule: Q01DX001 (ip), vehicle: saline with Tween-80
[3] = dose: 400.0 mg/kg/injection, schedule: Q01DX001 (ip), vehicle: saline with Tween-80
[4] = dose: 50.0 mg/kg/injection, schedule: Q01DX001 (ip), vehicle: saline
[5] = dose: 100.0 mg/kg/injection, schedule: Q01DX001 (ip), vehicle: saline
[6] = dose: 200.0 mg/kg/injection, schedule: Q01DX001 (ip), vehicle: saline
[7] = dose: 50.0 mg/kg/injection, schedule: Q01DX009 (ip), vehicle: saline with Tween-80
[8] = dose: 100.0 mg/kg/injection, schedule: Q01DX009 (ip), vehicle: Klucel (hydroxypropylcellulose) (HPC)
[9] = dose: 200.0 mg/kg/injection, schedule: Q01DX009 (ip), vehicle: Klucel (hydroxypropylcellulose) (HPC)
[10] = dose: 400.0 mg/kg/injection, schedule: Q01DX009 (ip), vehicle: Klucel (hydroxypropylcellulose) (HPC)
[11] = dose: 100.0 mg/kg/injection, schedule: Q01DX009 (ip), vehicle: saline with Tween-80
[12] = dose: 100.0 mg/kg/injection, schedule: Q04DX003 (ip), vehicle: saline with Tween-80
[13] = dose: 200.0 mg/kg/injection, schedule: Q01DX009 (ip), vehicle: saline with Tween-80
[14] = dose: 200.0 mg/kg/injection, schedule: Q04DX003 (ip), vehicle: saline with Tween-80
[15] = dose: 400.0 mg/kg/injection, schedule: Q01DX009 (ip), vehicle: saline with Tween-80
[16] = dose: 400.0 mg/kg/injection, schedule: Q04DX003 (ip), vehicle: saline with Tween-80
[17] = dose: 100.0 mg/kg/injection, schedule: Q04DX002 (ip), vehicle: Klucel (hydroxypropylcellulose) (HPC)
[18] = dose: 400.0 mg/kg/injection, schedule: Q04DX002 (ip), vehicle: Klucel (hydroxypropylcellulose) (HPC)
[19] = dose: 400.0 mg/kg/injection, schedule: Q01DX001 (ip), vehicle: saline
[20] = dose: 100.0 mg/kg/injection, schedule: Q04DX003 (ip), vehicle: Klucel (hydroxypropylcellulose) (HPC)
[21] = dose: 200.0 mg/kg/injection, schedule: Q04DX003 (ip), vehicle: Klucel (hydroxypropylcellulose) (HPC)
[22] = dose: 400.0 mg/kg/injection, schedule: Q04DX003 (ip), vehicle: Klucel (hydroxypropylcellulose) (HPC)

Measured: T/C

C/C=C/CC1(CCC)C(=O)NC(=O)NC1=O
inactive: dose: 75.0 mg/kg/injection, schedule: Q01DX001 (ip), vehicle: saline 100 % of control | dose: 150.0 mg/kg/injection, schedule: Q01DX001 (ip), vehicle: saline 98 % of control | dose: 300.0 mg/kg/injection, schedule: Q01DX001 (ip), vehicle: saline 104 % of control

Cc1c(C)c2c(c(C)c1O)CC(CC(=O)CO)CO2 (configuration not stated)
inactive: [1] 97 % of control | [2] 95 % of control | [3] 97 % of control

CC(=O)OC1CCC2(C)C(=CCC3C2CCC2(C)C3CC3C(c4ccccc4C)=NN(c4ccccc4)C32C#N)C1 (configuration not stated)
inactive: dose: 12.5 mg/kg/injection, schedule: Q04DX002 (ip), vehicle: Klucel (hydroxypropylcellulose) (HPC) 102 % of control | dose: 25.0 mg/kg/injection, schedule: Q04DX002 (ip), vehicle: Klucel (hydroxypropylcellulose) (HPC) 97 % of control | dose: 50.0 mg/kg/injection, schedule: Q04DX002 (ip), vehicle: Klucel (hydroxypropylcellulose) (HPC) 97 % of control

Cc1cc(C)c(CCN(C)C)c(C)c1
inactive: [4] 101 % of control | [5] 97 % of control | [6] 91 % of control

O=C1CC(C(=O)O)C(C(=O)O)C1 (configuration not stated)
inactive: [5] 91 % of control | [6] 91 % of control

FC(F)(F)C1=N/C(=C2\N=C(C(F)(F)F)N=C2Cl)C(Cl)=N1
inactive: dose: 25.0 mg/kg/injection, schedule: Q01DX009 (ip), vehicle: saline with Tween-80 94 % of control | [7] 96 % of control

CCC1(CCCCCCC(=O)CC(C)=O)OCCO1
inactive: [8] 105 % of control | [9] 104 % of control | [10] 91 % of control

Clc1onc(-c2ccccc2)c1-c1ccccc1
inactive: [11] 101 % of control | [12] 107 % of control | [13] 110 % of control | [14] 90 % of control | [15] 97 % of control | [16] 91 % of control

Cn1c(N)c(N=Nc2ccc(S(=O)(=O)Nc3ncccn3)cc2)c(=O)n(C)c1=O
inactive: dose: 100.0 mg/kg/injection, schedule: Q01DX001 (ip), vehicle: carboxymethylcellulose (CMC) 98 % of control | dose: 200.0 mg/kg/injection, schedule: Q01DX001 (ip), vehicle: carboxymethylcellulose (CMC) 98 % of control | dose: 400.0 mg/kg/injection, schedule: Q01DX001 (ip), vehicle: carboxymethylcellulose (CMC) 95 % of control

C(=Nc1cccnc1)c1c[nH]c2ccccc12
inactive: [8] 95 % of control | [9] 86 % of control | [10] 89 % of control

COc1ccc2c(c1)CCC1=C(C)C(=O)CCC12C (configuration not stated)
inactive: dose: 100.0 mg/kg/injection, schedule: Q01DX001 (ip), vehicle: Klucel (hydroxypropylcellulose) (HPC) 102 % of control | dose: 200.0 mg/kg/injection, schedule: Q01DX001 (ip), vehicle: Klucel (hydroxypropylcellulose) (HPC) 98 % of control | dose: 400.0 mg/kg/injection, schedule: Q01DX001 (ip), vehicle: Klucel (hydroxypropylcellulose) (HPC) 98 % of control

Cc1nc([Se]c2nc(C)n3ccncc23)c2cnccn12
inactive: [12] 98 % of control | [14] 95 % of control | [16] 93 % of control

O=CNc1ncnn1C(=S)NCc1ccccc1
inactive: dose: 50.0 mg/kg/injection, schedule: Q01DX009 (ip), vehicle: saline 105 % of control | dose: 100.0 mg/kg/injection, schedule: Q01DX009 (ip), vehicle: saline 111 % of control

Nc1c(Br)cc(I)cc1C(=O)O
inactive: [17] 108 % of control | dose: 200.0 mg/kg/injection, schedule: Q04DX002 (ip), vehicle: Klucel (hydroxypropylcellulose) (HPC) 93 % of control | [18] 104 % of control

CCC[CH2][Sn]([C]#[C][Sn]([CH2]CCC)([CH2]CCC)[CH2]CCC)([CH2]CCC)[CH2]CCC
inactive: dose: 0.39 mg/kg/injection, schedule: Q01DX009 (ip), vehicle: saline 94 % of control | dose: 0.78 mg/kg/injection, schedule: Q01DX009 (ip), vehicle: saline 94 % of control | dose: 1.56 mg/kg/injection, schedule: Q01DX009 (ip), vehicle: saline 97 % of control and 102 % of control | dose: 6.25 mg/kg/injection, schedule: Q01DX009 (ip), vehicle: Klucel (hydroxypropylcellulose) (HPC) 88 % of control | dose: 25.0 mg/kg/injection, schedule: Q04DX002 (ip), vehicle: saline 94 % of control

CSc1ccc(SCCOC(=O)Nc2ccc(Cl)cc2Cl)cc1
inactive: [7] 91 % of control | [11] 93 % of control | [13] 98 % of control

CCCCN(C)/N=N/c1nn[nH]n1
inactive: [17] 92 % of control | [18] 113 % of control

c1ccc(ON=C2c3ccccc3-c3ccccc32)cc1
inactive: dose: 100.0 mg/kg/injection, schedule: Q04DX003 (ip), vehicle: saline 102 % of control | dose: 200.0 mg/kg/injection, schedule: Q04DX003 (ip), vehicle: saline 96 % of control | dose: 400.0 mg/kg/injection, schedule: Q04DX003 (ip), vehicle: saline 89 % of control

O=CC1(C(O)C2SCCCS2)SCCCS1 (configuration not stated)
inactive: dose: 100.0 mg/kg/injection, schedule: Q01DX001 (ip), vehicle: other 113 % of control | dose: 200.0 mg/kg/injection, schedule: Q01DX001 (ip), vehicle: other 101 % of control | dose: 400.0 mg/kg/injection, schedule: Q01DX001 (ip), vehicle: other 97 % of control

CCCCCCCCCN=C(N)CSSCC(N)=NCCCCCCCCC
inactive: dose: 1.0 mg/kg/injection, schedule: Q01DX009 (ip), vehicle: Klucel (hydroxypropylcellulose) (HPC) 109 % of control | dose: 1.0 mg/kg/injection, schedule: Q04DX002 (ip), vehicle: Klucel (hydroxypropylcellulose) (HPC) 101 % of control | dose: 2.0 mg/kg/injection, schedule: Q01DX009 (ip), vehicle: Klucel (hydroxypropylcellulose) (HPC) 111 % of control | dose: 2.0 mg/kg/injection, schedule: Q04DX002 (ip), vehicle: Klucel (hydroxypropylcellulose) (HPC) 116 % of control | dose: 4.0 mg/kg/injection, schedule: Q01DX009 (ip), vehicle: Klucel (hydroxypropylcellulose) (HPC) 109 % of control | dose: 4.0 mg/kg/injection, schedule: Q04DX002 (ip), vehicle: Klucel (hydroxypropylcellulose) (HPC) 116 % of control

O=c1[nH]c(=S)[nH]c(-c2ccccc2)c1Cc1ccccc1
inactive: [4] 100 % of control | [5] 96 % of control | [6] 94 % of control | [19] 94 % of control

COc1ccc(/C=C/C(=O)c2ccc(OC)cc2)cc1
inactive: [8] 100 % of control | [20] 102 % of control | [9] 94 % of control | [21] 98 % of control | [10] 92 % of control | [22] 101 % of control

O=C1c2ccccc2C(=O)N1Cc1cccc(Nc2cc(=O)[nH]c(=O)[nH]2)c1
inactive: [2] 95 % of control

CN(Cc1ccccc1)C(=O)Nc1ccc(F)c([N+](=O)[O-])c1
inactive: [8] 113 % of control | [9] 98 % of control | [10] 101 % of control

CCOC(=O)c1cnc2ccccc2c1Cl
inactive: [5] 103 % of control and 87 % of control | [6] 105 % of control | [19] 103 % of control

NC(=O)c1csc(CCNC(=O)c2ccccc2)n1
inactive: [1] 100 % of control | [11] 100 % of control | [12] 95 % of control | [2] 102 % of control | [13] 100 % of control | [14] 103 % of control | [3] 104 % of control | [15] 89 % of control | [16] 101 % of control

CC1(c2ccco2)CCC(=O)CC1=O (configuration not stated)
inactive: [20] 101 % of control | [21] 98 % of control | [22] 98 % of control

CC(=O)N(N=O)c1ccc([N+](=O)[O-])cc1Cl
inactive: [4] 102 % of control | [5] 102 % of control | [6] 100 % of control | [19] 102 % of control
